Source: patent US12516046B2, “2-oxo-oxazolidine-5-carboxamides as NAV1.8 inhibitors” (Merck Sharp & Dohme LLC, priority 2020, dated 2026)

target: human Nav1.8 (Homo sapiens (Human), UniProt Q9Y5Y9); assay: Nav1.8 Qube® Assay (automated 384-well patch-clamp); type: cell-based; conditions: human Nav1.8 channels stably expressed in HEK 293 cells
Source text: Qube® Assay Experimental Procedure

human Nav1.8, sequence (Q9Y5Y9 whole entry): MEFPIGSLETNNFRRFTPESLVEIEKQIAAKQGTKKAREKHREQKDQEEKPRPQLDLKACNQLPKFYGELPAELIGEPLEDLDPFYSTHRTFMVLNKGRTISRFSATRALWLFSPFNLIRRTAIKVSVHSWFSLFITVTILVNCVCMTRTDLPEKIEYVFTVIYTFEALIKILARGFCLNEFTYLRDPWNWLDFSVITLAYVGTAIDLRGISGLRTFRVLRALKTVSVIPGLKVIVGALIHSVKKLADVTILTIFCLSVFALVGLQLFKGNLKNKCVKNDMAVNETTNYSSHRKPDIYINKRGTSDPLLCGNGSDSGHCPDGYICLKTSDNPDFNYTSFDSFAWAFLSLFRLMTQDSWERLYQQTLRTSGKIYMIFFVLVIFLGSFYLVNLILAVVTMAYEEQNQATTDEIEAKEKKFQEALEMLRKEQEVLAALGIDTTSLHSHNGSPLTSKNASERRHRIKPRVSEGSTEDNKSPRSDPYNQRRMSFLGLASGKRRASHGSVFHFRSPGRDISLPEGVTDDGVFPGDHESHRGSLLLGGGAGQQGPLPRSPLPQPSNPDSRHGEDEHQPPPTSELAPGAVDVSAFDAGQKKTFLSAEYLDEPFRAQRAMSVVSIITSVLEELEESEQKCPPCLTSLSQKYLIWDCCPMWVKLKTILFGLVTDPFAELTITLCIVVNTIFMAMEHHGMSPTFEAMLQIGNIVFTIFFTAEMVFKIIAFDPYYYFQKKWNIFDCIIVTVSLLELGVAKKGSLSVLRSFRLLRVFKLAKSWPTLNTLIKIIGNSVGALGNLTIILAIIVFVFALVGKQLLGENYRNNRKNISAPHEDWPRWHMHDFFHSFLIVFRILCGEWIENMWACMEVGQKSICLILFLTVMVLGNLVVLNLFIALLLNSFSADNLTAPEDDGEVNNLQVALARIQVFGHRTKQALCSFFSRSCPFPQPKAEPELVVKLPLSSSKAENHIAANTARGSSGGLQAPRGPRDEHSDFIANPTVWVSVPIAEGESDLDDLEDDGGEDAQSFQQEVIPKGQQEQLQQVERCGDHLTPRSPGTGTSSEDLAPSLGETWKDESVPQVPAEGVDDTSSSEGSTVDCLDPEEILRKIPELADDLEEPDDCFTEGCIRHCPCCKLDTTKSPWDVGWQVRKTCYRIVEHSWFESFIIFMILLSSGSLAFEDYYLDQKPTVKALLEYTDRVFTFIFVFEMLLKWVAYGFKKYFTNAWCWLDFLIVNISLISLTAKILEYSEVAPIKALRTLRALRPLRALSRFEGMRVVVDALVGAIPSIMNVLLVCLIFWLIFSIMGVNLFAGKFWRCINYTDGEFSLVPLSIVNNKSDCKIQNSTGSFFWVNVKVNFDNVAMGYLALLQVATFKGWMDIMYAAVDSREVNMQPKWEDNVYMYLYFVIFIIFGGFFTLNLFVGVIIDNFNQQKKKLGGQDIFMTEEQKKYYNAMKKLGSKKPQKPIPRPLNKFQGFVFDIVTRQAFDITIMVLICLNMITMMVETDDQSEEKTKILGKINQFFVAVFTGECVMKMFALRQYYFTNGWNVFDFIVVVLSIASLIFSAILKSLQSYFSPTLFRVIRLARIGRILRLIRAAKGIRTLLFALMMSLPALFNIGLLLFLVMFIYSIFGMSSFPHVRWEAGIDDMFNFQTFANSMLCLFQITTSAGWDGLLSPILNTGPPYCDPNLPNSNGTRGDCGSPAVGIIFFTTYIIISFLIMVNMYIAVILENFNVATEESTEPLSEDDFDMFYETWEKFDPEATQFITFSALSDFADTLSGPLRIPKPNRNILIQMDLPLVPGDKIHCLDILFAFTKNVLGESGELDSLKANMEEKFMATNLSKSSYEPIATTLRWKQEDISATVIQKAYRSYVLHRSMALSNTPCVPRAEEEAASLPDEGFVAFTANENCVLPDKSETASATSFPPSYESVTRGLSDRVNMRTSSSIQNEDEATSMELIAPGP

Question: For `O=C1NC[C@@H](C(=O)NC(c2ccc(OC(F)(F)F)c(Cl)c2)c2coc(C(F)(F)F)n2)O1` (single isomer, unassigned) [Example 51A, (S)-N-((R or S)-(3-chloro-4-(trifluoro-methoxy)phenyl)(2-(trifluoromethyl)oxazol-4-yl)methyl)-2-oxooxazolidine-5-carboxamide], which IC50 is on record?
Answer: 5.3 nM

Question: With `O=C1NC[C@@H](C(=O)NC(c2ccc(Cl)cc2)c2coc(C(F)(F)F)n2)O1` (single isomer, unassigned) [Example 18A, (S)-N-((R or S)-(4-chlorophenyl)(2-(trifluoromethyl)oxazol-4-yl)methyl)-2-oxooxazolidine-5-carboxamide] as the compound, how does the IC50 read?
Answer: 31 nM

Question: With `O=C1NC[C@@H](C(=O)NC(c2ccc(F)c(Cl)c2F)[C@@H]2C[C@@H]3[C@H](C2)C3(F)F)O1` (single isomer, unassigned) [Example 74A, (S)-N-((R or S)-(3-chloro-2,4-difluorophenyl) ((trans)-6,6-difluorobicyclo[3.1.0]hexan-3-yl)methyl)-2-oxooxazolidine-5-carboxamide] as the compound, how does the IC50 read?
Answer: 11 nM

Question: For `O=C1NC[C@@H](C(=O)NC(c2ccc(OC(F)(F)F)c(Cl)c2)c2cnn(C(F)(F)F)c2)O1` (single isomer, unassigned) [Example 53A, (S)-N-((R or S)-(3-chloro-4-(trifluoro-methoxy)phenyl)(1-(trifluoromethyl)-1H-pyrazol-4-yl)methyl)-2-oxooxazolidine-5-carboxamide], which IC50 is on record?
Answer: 22 nM

Question: How did the IC50 turn out when `O=C1NC[C@@H](C(=O)NC(c2ccc(Cl)cc2)c2ccc(Cl)c(C(F)(F)F)n2)O1` (single isomer, unassigned) [Example 2A, (S)—N—((R or S)-(5-chloro-6-(trifluoromethyl)pyridin-2-yl)(4-chlorophenyl)methyl)-2-oxooxazolidine-5-carboxamide] was run?
Answer: 0.6 nM

Question: With `CC(C)c1cccc(C(NC(=O)[C@@H]2CNC(=O)O2)c2ccc(Cl)cc2)c1` (single isomer, unassigned) [Example 32A, (S)-N-((R or S)-(4-chlorophenyl)(3-isopropylphenyl)methyl)-2-oxooxazolidine-5-carboxamide] as the compound, how does the IC50 read?
Answer: 5 nM

Question: Which IC50 does the source give for `Cn1nc(C(NC(=O)[C@@H]2CNC(=O)O2)c2ccc(F)c(Cl)c2)cc1C(F)(F)F` (single isomer, unassigned) [Example 62A, (S)-N-((R or S)-(3-chloro-4-fluorophenyl)(1-methyl-5-(trifluoromethyl)-1H-pyrazol-3-yl)methyl)-2-oxooxazolidine-5-carboxamide] here?
Answer: 39 nM

Question: How did the IC50 turn out when `O=C1NC[C@@H](C(=O)NC(c2ccc(Cl)cc2)c2ccc3ccccc3c2)O1` (stereo partly drawn) [Example 31, (5S)-N-((4-chlorophenyl) (naphthalen-2-yl)methyl)-2-oxooxazolidine-5-carboxamide] was run?
Answer: 3.9 nM

Question: `O=C1NC[C@@H](C(=O)NC(CC2CCCCC2)c2ccc(F)c(Cl)c2F)O1` (stereo partly drawn) [Example 67, (S)-N-(1-(3-chloro-2,4-difluorophenyl)-2-cyclohexylethyl)-2-oxooxazolidine-5-carboxamide] was tested. Which IC50 did it give?
Answer: 21 nM

Question: How did the IC50 turn out when `O=C1NC[C@@H](C(=O)NC(c2ccc(Cl)cc2)c2ccc(C(F)(F)F)cn2)O1` (single isomer, unassigned) [Example 37B, (S)-N-((R or S)-(4-chlorophenyl)(5-(trifluoromethyl)pyridin-2-yl)methyl)-2-oxooxazolidine-5-carboxamide] was run?
Answer: 26 nM

Question: With `O=C1NC[C@@H](C(=O)NC(c2ccc(Cl)cc2)c2ccc(C(F)(F)F)cn2)O1` (single isomer, unassigned) [Example 37A, (S)-N-((R or S)-(4-chlorophenyl)(5-(trifluoromethyl)pyridin-2-yl)methyl)-2-oxooxazolidine-5-carboxamide] as the compound, how does the IC50 read?
Answer: 113 nM

Question: How did the IC50 turn out when `O=C1NC[C@@H](C(=O)NC(c2ccccc2)c2cc(Cl)cc(Cl)c2)O1` (stereo partly drawn) [Example 20, (5S)-N-((3,5-dichlorophenyl) (phenyl)methyl)-2-oxooxazolidine-5-carboxamide] was run?
Answer: 32 nM

Question: `O=C1NC[C@@H](C(=O)NC(c2ccc(Cl)cc2)c2ccc(OCC(F)(F)F)nn2)O1` (single isomer, unassigned) [Example 73A, (S)-N-((R or S)-(4-chlorophenyl)(6-(2,2,2-trifluoroethoxy)pyridazin-3-yl)methyl)-2-oxooxazolidine-5-carboxamide] was tested. Which IC50 did it give?
Answer: 964 nM

Question: With `O=C1NC[C@@H](C(=O)NC(c2ccc(Cl)cc2)C2CCN(CC(F)(F)F)CC2)O1` (single isomer, unassigned) [Example 42B, (S)-N-((R or S)-(4-chlorophenyl)(1-(2,2,2-trifluoroethyl)piperidin-4-yl)methyl)-2-oxooxazolidine-5-carboxamide] as the compound, how does the IC50 read?
Answer: 272 nM

Question: `O=C1NC[C@@H](C(=O)NC(c2ccc(Cl)cc2)c2cccc(C3CC3)c2)O1` (single isomer, unassigned) [Example 33A, (S)-N-((R or S)-(4-chlorophenyl)(3-cyclopropylphenyl)methyl)-2-oxooxazolidine-5-carboxamide] was tested. Which IC50 did it give?
Answer: 4.8 nM

Question: How did the IC50 turn out when `O=C1NC[C@@H](C(=O)NC(c2ccccc2)c2ccc(Cl)c(Cl)c2)O1` (single isomer, unassigned) [Example 25A, (S)-N-((R or S)-(3,4-dichlorophenyl) (phenyl)methyl)-2-oxooxazolidine-5-carboxamide] was run?
Answer: 2.7 nM

Question: `O=C1NC[C@@H](C(=O)NC(c2ccc(OC(F)(F)F)c(Cl)c2)c2ccnc(C(F)(F)F)n2)O1` (single isomer, unassigned) [Example 52A, (S)-N-((R or S)-(3-chloro-4-(trifluoromethoxy)phenyl)(2-(trifluoro-methyl)pyrimidin-4-yl)methyl)-2-oxooxazolidine-5-carboxamide] was tested. Which IC50 did it give?
Answer: 7.9 nM

Question: Which IC50 does the source give for `COc1ccc(Cl)cc1C(NC(=O)[C@@H]1CNC(=O)O1)c1cccc(Cl)c1` (single isomer, unassigned) [Example 28B, (S)-N-((R or S)-(5-chloro-2-methoxyphenyl)(3-chlorophenyl)methyl)-2-oxooxazolidine-5-carboxamide] here?
Answer: 8.4 nM

Question: How did the IC50 turn out when `O=C1NC[C@@H](C(=O)NC(c2ccc(F)c(Cl)c2)c2cccc(C(F)(F)F)n2)O1` (single isomer, unassigned) [Example 49A, (S)-N-((R or S)-(3-chloro-4-fluorophenyl)(6-(trifluoromethyl)pyridin-2-yl)methyl)-2-oxooxazolidine-5-carboxamide] was run?
Answer: 8.8 nM

Question: Which IC50 does the source give for `O=C1NC[C@@H](C(=O)NC(c2ccc(Cl)c(C(F)(F)F)n2)C2CCC(F)(F)CC2)O1` (single isomer, unassigned) [Example 63B, (S)-N-((R or S)-(5-chloro-6-(trifluoromethyl)pyridin-2-yl)(4,4-difluoro-cyclohexyl)methyl)-2-oxooxazolidine-5-carboxamide] here?
Answer: 574 nM

Question: `O=C1NC[C@@H](C(=O)NC(c2ccc(Cl)cc2)c2c[nH]c(C(F)(F)F)n2)O1` (single isomer, unassigned) [Example 17B, (S)-N-((R or S)-(4-chlorophenyl)(2-(trifluoromethyl)-1H-imidazol-4-yl)methyl)-2-oxooxazolidine-5-carboxamide] was tested. Which IC50 did it give?
Answer: 10600 nM

Question: `O=C1NC[C@@H](C(=O)NC(c2ccc(Cl)cc2)C23CC(C(F)(F)F)(C2)C3)O1` (single isomer, unassigned) [Example 4A, (S)-N-((R or S)-(4-chlorophenyl)(3-(trifluoromethyl)bicyclo[1.1.1]pentan-1-yl)methyl)-2-oxooxazolidine-5-carboxamide] was tested. Which IC50 did it give?
Answer: 28 nM

Question: How did the IC50 turn out when `O=C1NC[C@@H](C(=O)NC(c2ccc(Cl)cc2)c2ccc(F)c(C(F)F)n2)O1` (single isomer, unassigned) [Example 16B] was run?
Answer: 3.3 nM
